Reference: patent US20210045385A1, “PYRIDAZINONE-SUBSTITUTED KETOXIMES AS HERBICIDES” (FMC Corporation, priority 2018, published 2021)

Assays:
Assay type in all cases: in vivo
rice (Oryza sativa) = test: Test B flooded paddy test, visual plant response rating; conditions: 250 g ai/ha, Flood, applied to paddy water, 2-leaf stage, evaluated after 13 to 15 days
Outline: (§1)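 Seedlings at 2 leaves; compound into paddy water (3 cm flood, maintained); 13–15 d greenhouse; visual score relative to controls.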

[1] = system: barnyardgrass (Echinochloa crus-galli); test: as above; conditions: 250 g ai/ha, Flood, applied to paddy water, 2-leaf stage, evaluated after 13 to 15 days
Outline: as §1

[2] = system: ducksalad (Heteranhera limosa); test: as above; conditions: 250 g ai/ha, Flood, applied to paddy water, 2-leaf stage, evaluated after 13 to 15 days
Outline: as §1

[3] = system: sedge, umbrella (small-flower umbrella sedge, Cyperus difformis); test: as above; conditions: 250 g ai/ha, Flood, applied to paddy water, 2-leaf stage, evaluated after 13 to 15 days
Outline: as §1

[4] = system: ragweed (common ragweed, Ambrosia elatior); test: Test A postemergence, visual plant response rating; conditions: for Ragweed plant response rating (0 to 100 scale): 500 g ai/ha, postemergence, 0 is no effect, 100 is complete control; for Ragweed plant response rating: Postemergence, 125 g ai/ha, 0 to 100 scale (0 no effect, 100 complete control)
Outline: (§2)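 Greenhouse evaluation, approx. 10 days post-spray. Soil: loam + sand. Postemergence stage: 1–2 leaves, height 2–10 cm. Vehicle: non-phytotoxic solvent blend with surfactant. Score: visual injury on a 0 (no effect) to 100 (complete control) scale.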

kochia (Kochia scoparia) [5] = test: Test A postemergence, visual plant response rating; conditions: for Kochia plant response rating (0 to 100 scale): 500 g ai/ha, postemergence, 0 is no effect, 100 is complete control; for Kochia plant response rating: Postemergence, 125 g ai/ha, 0 to 100 scale (0 no effect, 100 complete control)
Outline: as §2

[6] = system: pigweed (Amaranthus retroflexus); test: Test A postemergence, visual plant response rating; conditions: for Pigweed plant response rating (0 to 100 scale): 500 g ai/ha, postemergence, 0 is no effect, 100 is complete control; for Pigweed plant response rating: Postemergence, 125 g ai/ha, 0 to 100 scale (0 no effect, 100 complete control)
Outline: as §2

[7] = system: galium (catchweed bedstraw, Galium aparine); test: Test A postemergence, visual plant response rating; conditions: for Galium plant response rating (0 to 100 scale): 500 g ai/ha, postemergence, 0 is no effect, 100 is complete control; for Galium plant response rating: Postemergence, 125 g ai/ha, 0 to 100 scale (0 no effect, 100 complete control)
Outline: as §2

[8] = system: wheat (Triticum aestivum); test: Test A postemergence, visual plant response rating; conditions: for Wheat plant response rating (0 to 100 scale): 500 g ai/ha, postemergence, 0 is no effect, 100 is complete control; for Wheat plant response rating: Postemergence, 125 g ai/ha, 0 to 100 scale (0 no effect, 100 complete control)
Outline: as §2

[9] = system: blackgrass (Alopecurus myosuroides); test: Test A postemergence, visual plant response rating; conditions: for Blackgrass plant response rating (0 to 100 scale): 500 g ai/ha, postemergence, 0 is no effect, 100 is complete control; for Blackgrass plant response rating: Postemergence, 125 g ai/ha, 0 to 100 scale (0 no effect, 100 complete control)
Outline: as §2

[10] = system: foxtail, giant (giant foxtail, Setaria faberii); test: Test A postemergence, visual plant response rating; conditions: for Foxtail, Giant plant response rating (0 to 100 scale): 500 g ai/ha, postemergence, 0 is no effect, 100 is complete control; for Foxtail, Giant plant response rating: Postemergence, 125 g ai/ha, 0 to 100 scale (0 no effect, 100 complete control)
Outline: as §2

corn (Zea mays) = test: Test A postemergence, visual plant response rating; conditions: for Corn plant response rating (0 to 100 scale): 500 g ai/ha, postemergence, 0 is no effect, 100 is complete control; for Corn plant response rating: Postemergence, 125 g ai/ha, 0 to 100 scale (0 no effect, 100 complete control)
Outline: as §2

[11] = system: Italian ryegrass (Lolium multiflorum); test: Test A postemergence, visual plant response rating; conditions: for Ryegrass, Italian plant response rating (0 to 100 scale): 500 g ai/ha, postemergence, 0 is no effect, 100 is complete control; for Ryegrass, Italian plant response rating: Postemergence, 125 g ai/ha, 0 to 100 scale (0 no effect, 100 complete control)
Outline: as §2

[12] = system: barnyardgrass (Echinochloa crus-galli); test: Test A postemergence, visual plant response rating; conditions: for Barnyardgrass plant response rating (0 to 100 scale): 500 g ai/ha, postemergence, 0 is no effect, 100 is complete control; for Barnyardgrass plant response rating: Postemergence, 125 g ai/ha, 0 to 100 scale (0 no effect, 100 complete control)
Outline: as §2

[13] = system: ragweed (common ragweed, Ambrosia elatior); test: Test A preemergence, visual plant response rating; conditions: for Ragweed plant response rating: 125 g ai/ha, preemergence, 0 to 100 scale, 0 no effect, 100 complete control; for Ragweed plant response rating (0 to 100 scale): 500 g ai/ha Preemergence, approx. 10 days
Outline: as §2

kochia (Kochia scoparia) [14] = test: Test A preemergence, visual plant response rating; conditions: for Kochia plant response rating: 125 g ai/ha, preemergence, 0 to 100 scale, 0 no effect, 100 complete control; for Kochia plant response rating (0 to 100 scale): 500 g ai/ha Preemergence, approx. 10 days
Outline: as §2

[15] = system: pigweed (Amaranthus retroflexus); test: Test A preemergence, visual plant response rating; conditions: for Pigweed plant response rating: 125 g ai/ha, preemergence, 0 to 100 scale, 0 no effect, 100 complete control; for Pigweed plant response rating (0 to 100 scale): 500 g ai/ha Preemergence, approx. 10 days
Outline: as §2

[16] = system: foxtail, giant (giant foxtail, Setaria faberii); test: Test A preemergence, visual plant response rating; conditions: for Foxtail, Giant plant response rating: 125 g ai/ha, preemergence, 0 to 100 scale, 0 no effect, 100 complete control; for Foxtail, Giant plant response rating (0 to 100 scale): 500 g ai/ha Preemergence, approx. 10 days
Outline: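 Greenhouse pot test in loam–sand soil mix: compound in a surfactant-containing non-phytotoxic solvent applied preemergence (directed soil spray) or postemergence (one- to two-leaf plants, 2–10 cm). Injury scored visually after ~10 days, 0–100.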

[17] = system: Italian ryegrass (Lolium multiflorum); test: Test A preemergence, visual plant response rating; conditions: for Ryegrass, Italian plant response rating: 125 g ai/ha, preemergence, 0 to 100 scale, 0 no effect, 100 complete control; for Ryegrass, Italian plant response rating (0 to 100 scale): 500 g ai/ha Preemergence, approx. 10 days
Outline: as §2

[18] = system: barnyardgrass (Echinochloa crus-galli); test: Test A preemergence, visual plant response rating; conditions: for Barnyardgrass plant response rating: 125 g ai/ha, preemergence, 0 to 100 scale, 0 no effect, 100 complete control; for Barnyardgrass plant response rating (0 to 100 scale): 500 g ai/ha Preemergence, approx. 10 days
Outline: as §2

SMILES	Plant response rating, Rice (0 to 100 scale, 0 is no effect, 100 is complete control) (rice (Oryza sativa))	Plant response rating, Barnyardgrass (0 to 100 scale, 0 is no effect, 100 is complete control) [1]	Plant response rating, Ducksalad (0 to 100 scale, 0 is no effect, 100 is complete control) [2]	Plant response rating, Sedge, Umbrella (0 to 100 scale, 0 is no effect, 100 is complete control) [3]	Ragweed plant response rating (0 to 100 scale) [4]	Ragweed plant response rating [4]	Kochia plant response rating (0 to 100 scale) (kochia (Kochia scoparia) [5])	Kochia plant response rating (kochia (Kochia scoparia) [5])	Pigweed plant response rating (0 to 100 scale) [6]	Pigweed plant response rating [6]	Galium plant response rating (0 to 100 scale) [7]	Galium plant response rating [7]	Wheat plant response rating (0 to 100 scale) [8]	Wheat plant response rating [8]	Blackgrass plant response rating (0 to 100 scale) [9]	Blackgrass plant response rating [9]	Foxtail, Giant plant response rating (0 to 100 scale) [10]	Foxtail, Giant plant response rating [10]	Corn plant response rating (0 to 100 scale) (corn (Zea mays))	Corn plant response rating (corn (Zea mays))	other results
CON=C(c1c(OC(C)=O)c(C)nn(C)c1=O)c1cccc2ccccc12 [Compound 48]	0	0	0	0	90	80	80	70	90	80	90	80	10	0	90	70	80	30	80	10	Ryegrass, Italian plant response rating (0 to 100 scale) [11]: 80; Ryegrass, Italian plant response rating [11]: 70; Barnyardgrass plant response rating (0 to 100 scale) [12]: 30; Barnyardgrass plant response rating [12]: 20; Ragweed plant response rating [13]: 100; Ragweed plant response rating (0 to 100 scale) [13]: 100; Kochia plant response rating (kochia (Kochia scoparia) [14]): 40; Kochia plant response rating (0 to 100 scale) (kochia (Kochia scoparia) [14]): 100; Pigweed plant response rating [15]: 30; Pigweed plant response rating (0 to 100 scale) [15]: 100; Foxtail, Giant plant response rating [16]: 90; Foxtail, Giant plant response rating (0 to 100 scale) [16]: 90; Ryegrass, Italian plant response rating [17]: 40; Ryegrass, Italian plant response rating (0 to 100 scale) [17]: 70; Barnyardgrass plant response rating [18]: 20; Barnyardgrass plant response rating (0 to 100 scale) [18]: 70
CON=C(c1c(O)c(C)nn(C)c1=O)c1ccc(OC)c2ccccc12 [Compound 55]	0	0	0	0	30	0	30	10	20	0	70	50	20	0	80	70	50	20	30	0	Ryegrass, Italian plant response rating (0 to 100 scale) [11]: 70; Ryegrass, Italian plant response rating [11]: 0; Barnyardgrass plant response rating (0 to 100 scale) [12]: 30; Barnyardgrass plant response rating [12]: 20; Ragweed plant response rating [13]: 10; Ragweed plant response rating (0 to 100 scale) [13]: 80; Kochia plant response rating (kochia (Kochia scoparia) [14]): 0; Kochia plant response rating (0 to 100 scale) (kochia (Kochia scoparia) [14]): 0; Pigweed plant response rating [15]: 0; Pigweed plant response rating (0 to 100 scale) [15]: 0; Foxtail, Giant plant response rating [16]: 10; Foxtail, Giant plant response rating (0 to 100 scale) [16]: 90; Ryegrass, Italian plant response rating [17]: 0; Ryegrass, Italian plant response rating (0 to 100 scale) [17]: 30; Barnyardgrass plant response rating [18]: 0; Barnyardgrass plant response rating (0 to 100 scale) [18]: 50
C=CCO/N=C(\c1c(O)c(C)nn(C)c1=O)c1ccc(F)c2ccccc12 [Compound 86]	0	0	0	0	100	100	50	40	80	70	100	70	80	50	90	90	80	70	20	0	Ryegrass, Italian plant response rating (0 to 100 scale) [11]: 100; Ryegrass, Italian plant response rating [11]: 90; Barnyardgrass plant response rating (0 to 100 scale) [12]: 80; Barnyardgrass plant response rating [12]: 50; Ragweed plant response rating [13]: 80; Ragweed plant response rating (0 to 100 scale) [13]: 100; Kochia plant response rating (kochia (Kochia scoparia) [14]): 20; Kochia plant response rating (0 to 100 scale) (kochia (Kochia scoparia) [14]): 30; Pigweed plant response rating [15]: 90; Pigweed plant response rating (0 to 100 scale) [15]: 100; Foxtail, Giant plant response rating [16]: 100; Foxtail, Giant plant response rating (0 to 100 scale) [16]: 100; Ryegrass, Italian plant response rating [17]: 100; Ryegrass, Italian plant response rating (0 to 100 scale) [17]: 100; Barnyardgrass plant response rating [18]: 90; Barnyardgrass plant response rating (0 to 100 scale) [18]: 90
